Experimental data published in patent US11434235B2, “Solid form of dihydropyrimidine compound and preparation method therefor and use thereof” (SICHUAN KELUN-BIOTECH BIOPHARMACEUTICAL CO., LTD., priority 2018, dated 2022).

Columns and labels:
[1] = molecular target: hERG (Homo sapiens, UniProt Q12809); settings: background statement, no test described; cited from earlier work
[2] = test system: Beagle dogs; assay: Single dose toxicity in Beagle dogs; assay type: in vivo
Protocol: Formulation of the test sample: a required amount of a sample of the crystalline form A of Example 5 (the solvent used in the crystal preparation was isopropanol) was weighed and added to a mortar, polyethylene glycol-15 hydroxystearate (HS15) in an amount of 2.5% of the total volume was added, and the sample was evenly ground. The mortar was washed with a 0.5% methyl cellulose (MC) solution with grinding, until there was no visible residue. The mixture was transferred to a calibrated container, and then diluted with a 0.5% methyl cellulose solution to the volume. The solution was stirred uniformly with a magnetic stirrer to obtain a suspension, which was used as the test sample.
3 groups (4 dogs per group, half male and half female) were set in the single-dose toxicity test in Beagle dogs, and they were the vehicle control group and the low- and high-dose groups of the crystalline form A of the compound of Formula (I).

[3] = Determination of the solubility of the crystalline form A; assay type: physicochemical; settings: 25±2° C., Chinese Pharmacopoeia 2015 terms
Protocol: Test solvents: methanol, acetonitrile, ethanol, isopropanol, a 0.1 mol/L aqueous solution of hydrochloric acid and a 0.1 mol/L aqueous solution of sodium hydroxide. Test method: the investigation was conducted according to Item 15(2) of the General Notices in Volume IV of the Chinese Pharmacopoeia (2015 edition). An appropriate amount of a sample of the crystalline form A prepared in Example 5 (the solvent used in the crystal preparation was isopropanol) was weighed and added to a certain volume of the solvent at 25±2° C. The mixture was shaken strongly for 30 seconds at an interval of 5 minutes. […] It was considered to be completely soluble if none of the particles of the solute was observed.

[4] = Determination of the log P value (Sirius T3, pH-metric medium log P); assay type: physicochemical; settings: titration from low to high pH
Protocol: The log P value of a sample of the crystalline form A prepared in Example 5 (the solvent used in the crystal preparation was isopropanol) was measured with the Sirius T3 instrument for physical and chemical profile determination. The Sirius log P test method (pH-metric medium log P) was employed, wherein the pH-metric medium log P determination mode was selected, and the titration order was from low to high pH.

[5] = DVS study (hygroscopicity) of the crystalline form A; assay type: physicochemical
Protocol: The experimental conditions for the dynamic vapor sorption (DVS) were as follows: The detection was performed with DVS Intrinsic (SMS) at 25° C. in a cycle-DMDT mode. The hygroscopicity of a sample of the crystalline form A of the compound of Formula (I) was measured through dynamic vapor sorption (DVS): the hygroscopicity thereof was measured at 25° C., 10% humidity gradient in the range of 0%-90%-0%.

[6] = Stability of the crystalline form A under grinding (XRPD); assay type: physicochemical; settings: ground in a mortar for 5 minutes
Protocol: (§1) X′Pert3 Powder diffractometer using Cu target radiation was employed, and the detection was performed at room temperature with Absolute scan. The detection range was 3.5° to 40° with a step size of 0.013° and a dwell time of 50 s, scan time: 1. A sample of the crystalline form A of the compound of Formula (I) was ground at a constant speed in a mortar, and samples were taken after the grinding was performed for 2 and 5 minutes, respectively, for XRPD detection.

[7] = Pharmacokinetic experiment of the crystalline form A in rats; assay type: in vivo; settings: both sexes, Sprague-Dawley (SD), rat, blood, 3 mg/kg
Description: Formulation of the test sample for intravenous administration: the sample of Example 5 (the solvent used in the crystal preparation was isopropanol) was taken and dissolved in 5% DMSO+5% Solutol (HS15)+90% normal saline, to obtain the test sample solution for intravenous administration;
Formulation of the test sample for intragastric administration: the sample of Example 5 (the solvent used in the crystal preparation was isopropanol) was taken and suspended in 97.5% of 0.5% methyl cellulose (MC)+2.5% Solutol (HS15) to obtain a suspension, which was used as the test sample for intragastric administration.
12 SD rats were randomly divided into two groups, groups A and B (6 rats per group, half male and half female). The rats in Group A were each given a single intravenous injection of the sample drug; the rats in Group B were each given the sample drug through intragastric administration, and the dosages are both 3 mg/kg. The blood sampling time points for the intravenous and intragastric administration were before administration and 0.083, 0.25, 0.5, 1.0, 2.0, 4.0, 6.0, 8.0, 10, and 24 h after administration.

[8] = Stability of the crystalline form A at room temperature (XRPD); assay type: physicochemical; settings: 15 days
Protocol: as §1, with “allowed to stand” for “ground”, “room temperature,” for “a constant speed in a mortar,”, “on Day 5” for “after the grinding was performed for 2”, “15” for “5 minutes, respectively,”

[9] = test system: SD rats; assay: Single-dose toxicity in SD rats; assay type: in vivo
Description: The mortar was washed with a 0.5% methyl cellulose (MC) solution with grinding, until there was no visible residue. The mixture was transferred to a calibrated container, and then diluted with a 0.5% methyl cellulose solution to the volume. The solution was stirred uniformly with a magnetic stirrer to obtain a suspension, which was used as the test sample.
4 groups (10 rats per group, half male and half female) were set in the single-dose toxicity test in SD rats, and they were the vehicle control group and the low-, medium-, and high-dose groups of the crystalline form A of the compound of Formula (I), respectively.

[10] = Stability of the crystalline form A at a high temperature (XRPD); assay type: physicochemical; settings: 7 days
Protocol: as §1, with “allowed to stand under vacuum” for “ground”, “60° C.,” for “a constant speed in a mortar,”, “on Day 2, 5” for “after the grinding was performed for 2”, “7,” for “5 minutes,”

[11] = po, SD rats, intragastric, single dose, n = 6
[12] = SD rats, intravenous, single dose, n = 6

hERG, sequence (Q12809 whole entry): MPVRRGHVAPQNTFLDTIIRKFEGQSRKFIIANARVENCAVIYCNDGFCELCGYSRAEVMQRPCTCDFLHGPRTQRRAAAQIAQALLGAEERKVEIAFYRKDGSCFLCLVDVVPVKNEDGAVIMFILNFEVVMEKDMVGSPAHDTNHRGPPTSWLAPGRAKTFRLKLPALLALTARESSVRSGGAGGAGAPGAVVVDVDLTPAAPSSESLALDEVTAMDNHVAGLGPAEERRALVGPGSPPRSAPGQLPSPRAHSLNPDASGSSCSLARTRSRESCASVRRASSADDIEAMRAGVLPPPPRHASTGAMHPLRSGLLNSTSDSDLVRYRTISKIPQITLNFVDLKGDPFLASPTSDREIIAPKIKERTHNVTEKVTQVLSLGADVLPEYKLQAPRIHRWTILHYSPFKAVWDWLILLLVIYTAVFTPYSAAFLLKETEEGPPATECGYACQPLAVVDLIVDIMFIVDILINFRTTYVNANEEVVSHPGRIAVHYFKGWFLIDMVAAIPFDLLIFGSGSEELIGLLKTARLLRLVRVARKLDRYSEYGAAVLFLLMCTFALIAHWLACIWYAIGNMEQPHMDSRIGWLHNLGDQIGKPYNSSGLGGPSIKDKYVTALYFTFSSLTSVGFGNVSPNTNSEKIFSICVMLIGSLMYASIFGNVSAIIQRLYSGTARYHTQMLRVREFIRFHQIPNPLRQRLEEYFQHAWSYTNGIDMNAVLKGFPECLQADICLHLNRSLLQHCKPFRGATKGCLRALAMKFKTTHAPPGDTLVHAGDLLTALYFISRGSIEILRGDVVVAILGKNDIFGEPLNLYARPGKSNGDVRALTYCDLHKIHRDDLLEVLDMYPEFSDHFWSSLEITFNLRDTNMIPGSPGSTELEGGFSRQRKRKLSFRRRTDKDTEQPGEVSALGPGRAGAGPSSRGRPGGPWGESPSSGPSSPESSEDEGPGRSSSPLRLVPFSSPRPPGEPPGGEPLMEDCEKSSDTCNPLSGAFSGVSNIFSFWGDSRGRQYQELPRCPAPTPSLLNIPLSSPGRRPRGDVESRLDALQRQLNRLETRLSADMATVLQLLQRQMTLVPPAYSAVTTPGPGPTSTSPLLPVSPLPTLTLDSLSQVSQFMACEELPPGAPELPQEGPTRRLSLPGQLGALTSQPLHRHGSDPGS

COC(=O)C1=C(CN2CCO[C@H](/C=C/C(=O)O)C2)NC(c2nccs2)=N[C@H]1c1ccc(F)cc1Cl [compound of Formula (I), (E)-3-((R)-4-(((R)-6-(2-chloro-4-fluorophenyl)-5-(methoxycarbonyl)-2-(thiazol-2-yl)-3,6-dihydropyrimidin-4-yl)methyl)morpholin-2-yl)acrylic acid]
cardiotoxicity [1]: no cardiotoxicity

COC(=O)C1=C(CN2CCO[C@H](/C=C/C(=O)O)C2)NC(c2nccs2)=N[C@H]1c1ccc(F)cc1Cl [crystalline form A, (E)-3-((R)-4-(((R)-6-(2-chloro-4-fluorophenyl)-5-(methoxycarbonyl)-2-(thiazol-2-yl)-3,6-dihydropyrimidin-4-yl)methyl)morpholin-2-yl)acrylic acid]
tolerability, single dose ([2]; Beagle dogs, intragastric, low- and high-dose groups, 14 days observation): well tolerated | abnormalities after 14 days ([2]; dog, in vivo): no abnormalities were observed | solubility in 0.1 mol/L aqueous solution of hydrochloric acid [3]: sparingly soluble | solubility in 0.1 mol/L aqueous solution of sodium hydroxide [3]: sparingly soluble | solubility in acetonitrile [3]: soluble | solubility in ethanol [3]: soluble | solubility in isopropanol [3]: slightly soluble | solubility in methanol [3]: soluble | logP [4]: 2.4 to 2.6 | weight increase by hygroscopy ([5]; DVS, 25° C., 80% humidity): 0.28% | hygroscopicity class (Chinese Pharmacopoeia 2015) ([5]; weight increase within 0.2%-2%): slightly hygroscopic | crystalline form after grinding (XRPD) [6]: did not change | bioavailability ([7]; oral, rats, intragastric vs intravenous, calculated based on AUC0-∞, read-out: absolute bioavailability): 62.4% | AUC(0-inf) [7, 11]: 6490 ± 2950 ng·h/mL | AUC(0-t) [7, 11]: 6460 ± 2940 ng·h/mL | Cmax [7, 11]: 3980 ± 1440 ng/mL | half-life [7, 11]: 60.6 ± 15.6 min | Tmax ([7]; po, SD rats, intragastric, single dose, n = 6, median (range in next line)): 22.8 min | AUC(0-inf) [7, 12]: 10400 ± 4500 ng·h/mL | AUC(0-t) [7, 12]: 10400 ± 4500 ng·h/mL | Cmax [7, 12]: 9210 ± 2100 ng/mL | half-life [7, 12]: 52.8 ± 10.8 min | crystalline form after standing at room temperature (XRPD) [8]: did not change | abnormalities after 14 days ([9]; intragastric single dose, condition, body weight, food intake, hematology, blood biochemistry, gross anatomy): no abnormalities were observed | tolerability, single dose ([9]; intragastric, low-, medium-, high-dose groups, 14 days observation): well tolerated | crystalline form after standing under vacuum at 60° C. (XRPD) [10]: did not change
